Laboratory results taken from patent US7592345B2, “Piperazine and [1,4]diazepan derivatives as NK antagonists” (Hoffmann-La Roche Inc., priority 2007, dated 2009).

Target: T1, recombinant human NK3 receptor (Homo sapiens, UniProt P29371)
T1 construct: expressed in transfected cells; host or cells: HEK293 cells (transient expression), membranes
T1 sequence (P29371 1-465): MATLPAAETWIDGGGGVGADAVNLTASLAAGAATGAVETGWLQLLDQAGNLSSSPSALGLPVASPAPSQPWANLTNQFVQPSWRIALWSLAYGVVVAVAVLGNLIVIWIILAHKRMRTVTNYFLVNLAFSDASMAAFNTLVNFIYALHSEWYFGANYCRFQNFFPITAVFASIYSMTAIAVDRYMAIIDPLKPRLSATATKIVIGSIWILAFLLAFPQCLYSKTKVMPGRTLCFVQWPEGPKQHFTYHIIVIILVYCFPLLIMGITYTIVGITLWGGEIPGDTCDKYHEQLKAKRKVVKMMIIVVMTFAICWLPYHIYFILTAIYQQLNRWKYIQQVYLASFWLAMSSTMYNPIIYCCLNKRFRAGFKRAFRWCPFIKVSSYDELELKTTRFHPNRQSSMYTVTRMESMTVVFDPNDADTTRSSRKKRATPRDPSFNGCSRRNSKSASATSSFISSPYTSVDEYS
Assay: [3H]SR142801 competition binding assay
Conditions: [3H]SR142801, membranes from HEK293 cells transiently expressing recombinant human NK3 receptor; read-out: hNK3 Ki
Protocol: [^3H]SR142801 Competition Binding Assay
hNK3 receptor binding experiment were performed using [^3H]SR142801 (Catalog No. TRK1035, specific activity: 74.0 Ci/mmol, Amersham, GE Healthcare UK limited, Buckinghamshire, UK) and membrane isolated from HEK293 cells transiently expressing recombinant human NK3 receptor. After thawing, the membrane homogenates were centrifuged at 48,000×g for 10 min at 4° C., the pellets were resuspended in the 50 mM Tris-HCl, 4 mM MnCl2, 1 μM phosphoramidon, 0.1% BSA binding buffer at pH 7.4 to a final assay concentration of 5 μg protein/well. For inhibition experiments, membranes were incubated with [^3H]SR142801 at a concentration equal to KD value of radioligand and 10 concentrations of the inhibitory compound (0.0003-10 μM) (in a total reaction volume of 500 μl) for 75 min at room temperature (RT). At the end of the incubation, membranes were filtered onto unitfilter (96-well white microplate with bonded GF/C filter preincubated 1 h in 0.3% PEI+0.3% BSA, Packard BioScience, Meriden, Conn.) with a Filtermate 196 harvester (Packard BioScience) and washed 4 times with ice-cold 50 mM Tris-HCl, pH 7.4 buffer. Nonspecific binding was measured in the presence of 10 μM SB222200 for both radioligands. The radioactivity on the filter was counted (5 min) on a Packard Top-count microplate scintillation counter with quenching correction after addition of 45 μl of microscint 40 (Canberra Packard S. A., Zürich, Switzerland) and shaking for 1 h. Inhibition curves were fitted according to the Hill equation: y=100/(1+(x/IC50)^nH), where nH=slope factor using Excel-fit 4 software (Microsoft). IC50 values were derived from the inhibition curve and the affinity constant (Ki) values were calculated using the Cheng-Prussoff equation Ki=IC50/(1+[L]/KD) where [L] is the concentration of radioligand and KD is its dissociation constant at the receptor, derived from the saturation isotherm. All experiments were performed in duplicate and the mean±standard error (SEM) of the individual Ki values was calculated.

| Ki [nM] | SMILES |
| --- | --- |
| 77.4 | Cc1ccc(CN(C)C(=O)C(C)(CCN2CCN(S(C)(=O)=O)CC2)c2ccc(Cl)c(Cl)c2)cc1 (centres unmarked) [Example 22, 2-(3,4-Dichloro-phenyl)-4-(4-methanesulfonyl-piperazin-1-yl)-2,N-dimethyl-N-(4-methyl-benzyl)-butyramide] |
| 224 | CN(Cc1cccc(F)c1)C(=O)C(C)(CCN1CCN(S(C)(=O)=O)CC1)c1ccc(Cl)c(Cl)c1 (centres unmarked) [Example 24, 2-(3,4-Dichloro-phenyl)-N-(3-fluoro-benzyl)-4-(4-methanesulfonyl-piperazin-1-yl)-2,N-dimethyl-butyramide] |
| 134 | COc1ccc(CN(C)C(=O)C(C)(CCN2CCN(S(C)(=O)=O)CC2)c2ccc(Cl)c(Cl)c2)cc1F (centres unmarked) [Example 25, 2-(3,4-Dichloro-phenyl)-N-(3-fluoro-4-methoxy-benzyl)-4-(4-methanesulfonyl-piperazin-1-yl)-2,N-dimethyl-butyramide] |
| 275 | COc1cc(CN(C)C(=O)C(C)(CCN2CCN(S(C)(=O)=O)CC2)c2ccc(Cl)c(Cl)c2)ccc1OC(F)F (centres unmarked) [Example 26, 2-(3,4-Dichloro-phenyl)-N-(4-difluoromethoxy-3-methoxy-benzyl)-4-(4-methanesulfonyl-piperazin-1-yl)-2,N-dimethyl-butyramide] |
| 133 | CC(CCN1CCN(S(C)(=O)=O)CC1)(C(=O)NCc1ccc(Cl)c(F)c1)c1ccc(Cl)c(Cl)c1 (centres unmarked) [Example 30, N-(4-Chloro-3-fluoro-benzyl)-2-(3,4-dichloro-phenyl)-4-(4-methanesulfonyl-piperazin-1-yl)-2-methyl-butyramide] |
| 216 | COc1cc(CN(C)C(=O)C(C)(CCN2CCN(S(C)(=O)=O)[C@H](C)C2)c2ccc(Cl)c(Cl)c2)ccc1OC(F)F (stereo partly drawn) [Example 35, 2-(3,4-Dichloro-phenyl)-N-(4-difluoromethoxy-3-methoxy-benzyl)-4-((R)-4-methanesulfonyl-3-methyl-piperazin-1-yl)-2,N-dimethyl-butyramide] |
| 5.7 | C[C@@H]1CN(CCC(C)(C(=O)NCc2ccc(Cl)c(Cl)c2)c2ccc(Cl)c(Cl)c2)CCN1S(C)(=O)=O (stereo partly drawn) [Example 42, N-(3,4-Dichloro-benzyl)-2-(3,4-dichloro-phenyl)-4-((R)-4-methanesulfonyl-3-methyl-piperazin-1-yl)-2-methyl-butyramide] |
| 99.9 | C[C@@H]1CN(CCC(C)(C(=O)NCc2cccc(OC(F)F)c2)c2ccc(Cl)c(Cl)c2)CCN1S(C)(=O)=O (stereo partly drawn) [Example 43, 2-(3,4-Dichloro-phenyl)-N-(3-difluoromethoxy-benzyl)-4-((R)-4-methanesulfonyl-3-methyl-piperazin-1-yl)-2-methyl-butyramide] |

Further lines, the compound ahead of its results:

| SMILES | Ki [nM] |
| --- | --- |
| CN(Cc1ccc(-c2ccncc2)cc1)C(=O)C(C)(CCN1CCN(S(C)(=O)=O)CC1)c1ccc(Cl)c(Cl)c1 (centres unmarked) [Example 23, 2-(3,4-Dichloro-phenyl)-4-(4-methanesulfonyl-piperazin-1-yl)-2,N-dimethyl-N-(4-pyridin-4-yl-benzyl)-butyramide] | 201 |
| CC(CCN1CCN(S(C)(=O)=O)CC1)(C(=O)NCc1ccc(C(F)(F)F)cc1)c1ccc(Cl)c(Cl)c1 (centres unmarked) [Example 27, 2-(3,4-Dichloro-phenyl)-4-(4-methanesulfonyl-piperazin-1-yl)-2-methyl-N-(4-trifluoromethyl-benzyl)-butyramide] | 82 |
| CN(Cc1ccc(C(F)(F)F)cc1)C(=O)C(C)(CCN1CCN(S(C)(=O)=O)CC1)c1ccc(Cl)c(Cl)c1 (centres unmarked) [Example 28, 2-(3,4-Dichloro-phenyl)-4-(4-methanesulfonyl-piperazin-1-yl)-2,N-dimethyl-N-(4-trifluoromethyl-benzyl)-butyramide] | 45 |
| CC(CCN1CCN(S(C)(=O)=O)CC1)(C(=O)NCc1ccc(Cl)cc1)c1ccc(Cl)c(Cl)c1 (centres unmarked) [Example 29, N-(4-Chloro-benzyl)-2-(3,4-dichloro-phenyl)-4-(4-methanesulfonyl-piperazin-1-yl)-2-methyl-butyramide] | 98.4 |
| COc1ccc(CN(C)C(=O)C(C)(CCN2CCN(S(C)(=O)=O)[C@H](C)C2)c2ccc(Cl)c(Cl)c2)cc1F (stereo partly drawn) [Example 31, 2-(3,4-Dichloro-phenyl)-N-(3-fluoro-4-methoxy-benzyl)-4-((R)-4-methanesulfonyl-3-methyl-piperazin-1-yl)-2,N-dimethyl-butyramide] | 109 |
| COc1ccc(C(NC(=O)C(C)(CCN2CCN(S(C)(=O)=O)[C@H](C)C2)c2ccc(Cl)c(Cl)c2)C2CC2)cc1 (stereo partly drawn) [Example 32, N-[Cyclopropyl-(4-methoxy-phenyl)-methyl]-2-(3,4-dichloro-phenyl)-4-((R)-4-methanesulfonyl-3-methyl-piperazin-1-yl)-2-methyl-butyramide] | 16.8 |
| C[C@@H]1CN(CCC(C)(C(=O)N(C)Cc2ccc(F)c(C(F)(F)F)c2)c2ccc(Cl)c(Cl)c2)CCN1S(C)(=O)=O (stereo partly drawn) [Example 33, 2-(3,4-Dichloro-phenyl)-N-(4-fluoro-3-trifluoromethyl-benzyl)-4-((R)-4-methanesulfonyl-3-methyl-piperazin-1-yl)-2,N-dimethyl-butyramide] | 15.8 |
| C[C@@H]1CN(CCC(C)(C(=O)NCc2cc(C(F)(F)F)cc(C(F)(F)F)c2)c2ccc(Cl)c(Cl)c2)CCN1S(C)(=O)=O (stereo partly drawn) [Example 34, N-(3,5-Bis-trifluoromethyl-benzyl)-2-(3,4-dichloro-phenyl)-4-((R)-4-methanesulfonyl-3-methyl-piperazin-1-yl)-2-methyl-butyramide] | 48.1 |
| Cc1ccc(CN(C)C(=O)C(C)(CCN2CCN(S(C)(=O)=O)[C@H](C)C2)c2ccc(Cl)c(Cl)c2)cc1 (stereo partly drawn) [Example 36, 2-(3,4-Dichloro-phenyl)-4-((R)-4-methanesulfonyl-3-methyl-piperazin-1-yl)-2,N-dimethyl-N-(4-methyl-benzyl)-butyramide] | 50.8 |
| C[C@@H]1CN(CCC(C)(C(=O)NCc2ccc(N(C)C)cc2)c2ccc(Cl)c(Cl)c2)CCN1S(C)(=O)=O (stereo partly drawn) [Example 37, 2-(3,4-Dichloro-phenyl)-N-(4-dimethylamino-benzyl)-4-((R)-4-methanesulfonyl-3-methyl-piperazin-1-yl)-2-methyl-butyramide] | 485 |
| C[C@@H]1CN(CCC(C)(C(=O)NCc2ccc3nccnc3c2)c2ccc(Cl)c(Cl)c2)CCN1S(C)(=O)=O (stereo partly drawn) [Example 38, 2-(3,4-Dichloro-phenyl)-4-((R)-4-methanesulfonyl-3-methyl-piperazin-1-yl)-2-methyl-N-quinoxalin-6-ylmethyl-butyramide] | 545 |
| C[C@@H]1CN(CCC(C)(C(=O)N(C)Cc2ccc(Cl)c(C(F)(F)F)c2)c2ccc(Cl)c(Cl)c2)CCN1S(C)(=O)=O (stereo partly drawn) [Example 39, N-(4-Chloro-3-trifluoromethyl-benzyl)-2-(3,4-dichloro-phenyl)-4-((R)-4-methanesulfonyl-3-methyl-piperazin-1-yl)-2,N-dimethyl-butyramide] | 12.6 |
| C[C@@H]1CN(CCC(C)(C(=O)N(C)Cc2ccc(C(F)(F)F)c(F)c2)c2ccc(Cl)c(Cl)c2)CCN1S(C)(=O)=O (stereo partly drawn) [Example 40, 2-(3,4-Dichloro-phenyl)-N-(3-fluoro-4-trifluoromethyl-benzyl)-4-((R)-4-methanesulfonyl-3-methyl-piperazin-1-yl)-2,N-dimethyl-butyramide] | 16.7 |
| C[C@@H]1CN(CCC(C)(C(=O)N(C)Cc2ccc(Cl)c(Cl)c2)c2ccc(Cl)c(Cl)c2)CCN1S(C)(=O)=O (stereo partly drawn) [Example 41, N-(3,4-Dichloro-benzyl)-2-(3,4-dichloro-phenyl)-4-((R)-4-methanesulfonyl-3-methyl-piperazin-1-yl)-2,N-dimethyl-butyramide] | 13.3 |
| C[C@@H]1CN(CCC(C)(C(=O)NCc2cc(F)ccc2C(F)(F)F)c2ccc(Cl)c(Cl)c2)CCN1S(C)(=O)=O (stereo partly drawn) [Example 44, 2-(3,4-Dichloro-phenyl)-N-(5-fluoro-2-trifluoromethyl-benzyl)-4-((R)-4-methanesulfonyl-3-methyl-piperazin-1-yl)-2-methyl-butyramide] | 212 |
